Patent publication US9738932B2, “Biomarkers for cardiovascular side-effects induced by cox-2 inhibitory compounds” (FIRALIS SAS, priority 2005, dated 2017)

Test system: mRNA expression in cardiovascular tissues
Details: cynomolgus monkey, in vivo

Cc1ccc(-c2cc(C(F)(F)F)nn2-c2ccc(S(N)(=O)=O)cc2)cc1 [Celebrex]
AIF1 (209901_x_at) avg fold change vs control: 1.5 fold | AIF1 (213095_x_at) avg fold change vs control: 2.0 fold | B2M (201891_s_at) avg fold change vs control: 1.3 fold | BTN3A1 (207485_x_at) avg fold change vs control: 1.7 fold | BTN3A3 (204821_at) avg fold change vs control: 1.6 fold | C1S (208747_s_at) avg fold change vs control: 1.0 fold | C2 (203052_at) avg fold change vs control: 1.1 fold | C4A (208451_s_at) avg fold change vs control: 1.6 fold | CASP1 (211367_s_at) avg fold change vs control: 1.2 fold | CCL3 (205114_s_at) avg fold change vs control: 1.3 fold | CCL5 (1405_i_at) avg fold change vs control: 0.9 fold | CCL19 (210072_at) avg fold change vs control: 2.0 fold | CCNB2 (202705_at) avg fold change vs control: 1.2 fold | CD74 (209619_at) avg fold change vs control: 1.3 fold | CX3CR1 (205898_at) avg fold change vs control: 1.1 fold | DUSP6 (208893_s_at) avg fold change vs control: 1.2 fold | ECGF1 (204858_s_at) avg fold change vs control: 1.1 fold | FCGR3A (204006_s_at) avg fold change vs control: 1.3 fold | GZMB (210164_at) avg fold change vs control: 0.9 fold | HLA-DMA (217478_s_at) avg fold change vs control: 1.4 fold | HLA-DQB1 (211656_x_at) avg fold change vs control: 1.6 fold | HLA-DRB1 (215193_x_at) avg fold change vs control: 1.7 fold | IRF1 (202531_at) avg fold change vs control: 1.1 fold | IRF7 (208436_s_at) avg fold change vs control: 2.1 fold | ISGF3G (203882_at) avg fold change vs control: 1.0 fold | LAIR1 (208071_s_at) avg fold change vs control: 3.6 fold | LRMP (204674_at) avg fold change vs control: 3.8 fold | PLA2G4C (209785_s_at) avg fold change vs control: 1.4 fold | TNFSF10 (202687_s_at) avg fold change vs control: 1.3 fold | TNFSF10 (202688_at) avg fold change vs control: 1.3 fold | 209813_x_at avg fold change vs control (2 weeks): 1.2 fold | BCL3 (204908_s_at) avg fold change vs control (2 weeks): 1.0 fold | BTN3A3 (38241_at) avg fold change vs control (2 weeks): 1.1 fold | BTN3A3 (204820_s_at) avg fold change vs control (2 weeks): 1.3 fold | C1QA (218232_at) avg fold change vs control (2 weeks): 1.5 fold | C1QB (202953_at) avg fold change vs control (2 weeks): 1.1 fold | C1R (212067_s_at) avg fold change vs control (2 weeks): 0.9 fold | CASP1 (209970_x_at) avg fold change vs control (2 weeks): 1.2 fold | CCL2 (216598_s_at) avg fold change vs control (2 weeks): 2.3 fold | CCL8 (214038_at) avg fold change vs control (2 weeks): 1.3 fold | CCL18 (209924_at) avg fold change vs control (2 weeks): 1.5 fold | CD3D (213539_at) avg fold change vs control (2 weeks): 3.2 fold | CD8A (205758_at) avg fold change vs control (2 weeks): 1.0 fold | CD14 (201743_at) avg fold change vs control (2 weeks): 1.1 fold | CLU (208791_at) avg fold change vs control (2 weeks): 0.8 fold | CMAH (210571_s_at) avg fold change vs control (2 weeks): 1.0 fold | CTSC (201487_at) avg fold change vs control (2 weeks): 1.3 fold | CTSK (202450_s_at) avg fold change vs control (2 weeks): 1.0 fold | CTSS (202902_s_at) avg fold change vs control (2 weeks): 1.2 fold | CXCL9 (203915_at) avg fold change vs control (2 weeks): 1.4 fold | CXCL10 (204533_at) avg fold change vs control (2 weeks): 1.1 fold | CXCL11 (210163_at) avg fold change vs control (2 weeks): 3.7 fold | CXCL11 (211122_s_at) avg fold change vs control (2 weeks): 1.6 fold | CXCL12 (209687_at) avg fold change vs control (2 weeks): 1.1 fold | CYBA (203028_s_at) avg fold change vs control (2 weeks): 1.2 fold | CYBB (203923_s_at) avg fold change vs control (2 weeks): 1.2 fold | CYP1B1 (202436_s_at) avg fold change vs control (2 weeks): 1.0 fold | CYP3A5 (214234_s_at) avg fold change vs control (2 weeks): 1.3 fold | CYP11B1 (214630_at) avg fold change vs control (2 weeks): 1.1 fold | ECM1 (209365_s_at) avg fold change vs control (2 weeks): 0.9 fold | F2RL1 (206429_at) avg fold change vs control (2 weeks): 1.1 fold | F13A1 (203305_at) avg fold change vs control (2 weeks): 0.9 fold | FCGR1A (214511_x_at) avg fold change vs control (2 weeks): 1.1 fold | G1P2 (205483_s_at) avg fold change vs control (2 weeks): 1.4 fold | HCA127 (220040_x_at) avg fold change vs control (2 weeks): 1.0 fold | HCK (208018_s_at) avg fold change vs control (2 weeks): 1.4 fold | HFE (210864_x_at) avg fold change vs control (2 weeks): 1.1 fold | HFE (211329_x_at) avg fold change vs control (2 weeks): 0.7 fold | HFE (211332_x_at) avg fold change vs control (2 weeks): 0.8 fold | HFE (211863_x_at) avg fold change vs control (2 weeks): 0.9 fold | HFE (211866_x_at) avg fold change vs control (2 weeks): 0.9 fold | HHL (203020_at) avg fold change vs control (2 weeks): 1.4 fold | HLA-A (211528_x_at) avg fold change vs control (2 weeks): 1.1 fold | HLA-A (211529_x_at) avg fold change vs control (2 weeks): 1.2 fold | HLA-A (211530_x_at) avg fold change vs control (2 weeks): 1.5 fold | HLA-A (215313_x_at) avg fold change vs control (2 weeks): 1.2 fold | HLA-B (208729_x_at) avg fold change vs control (2 weeks): 1.1 fold | HLA-B (209140_x_at) avg fold change vs control (2 weeks): 1.1 fold | HLA-B (211911_x_at) avg fold change vs control (2 weeks): 1.2 fold | HLA-C (208812_x_at) avg fold change vs control (2 weeks): 1.2 fold | HLA-C (214459_x_at) avg fold change vs control (2 weeks): 1.3 fold | HLA-C (216526_x_at) avg fold change vs control (2 weeks): 1.2 fold | HLA-DMB (203932_at) avg fold change vs control (2 weeks): 1.4 fold | HLA-DQA1 (212671_s_at) avg fold change vs control (2 weeks): 2.1 fold | HLA-DQB1 (209823_x_at) avg fold change vs control (2 weeks): 2.0 fold | HLA-DQB1 (211654_x_at) avg fold change vs control (2 weeks): 2.0 fold | HLA-DQB2 (212998_x_at) avg fold change vs control (2 weeks): 1.9 fold | HLA-DRA (208894_at) avg fold change vs control (2 weeks): 1.3 fold | HLA-DRA (210982_s_at) avg fold change vs control (2 weeks): 1.5 fold | HLA-DRB3 (209312_x_at) avg fold change vs control (2 weeks): 1.5 fold | HLA-DRB6 (217362_x_at) avg fold change vs control (2 weeks): 1.4 fold | HLA-E (200905_x_at) avg fold change vs control (2 weeks): 1.1 fold | HLA-E (217456_x_at) avg fold change vs control (2 weeks): 1.2 fold | HLA-F (204806_x_at) avg fold change vs control (2 weeks): 1.2 fold | HLA-F (221875_x_at) avg fold change vs control (2 weeks): 1.0 fold | ICAM1 (202638_s_at) avg fold change vs control (2 weeks): 0.8 fold | ICAM1 (215485_s_at) avg fold change vs control (2 weeks): 1.1 fold
